What all share (test): inhibition of tumour cell growth, NCI panel, 48 h
In experiment [1] the test system is NCI-H460 lung.
Experiment [2] deals with SR leukemia.
Experiment [3] concerns HOP-62 NSCLC.
Experiment [4] concerns NCI-H226 lung.
The test system of experiment [5] is HCT-116 colon.
Experiment [6] has as its system OVCAR-5 ovarian.
The subject of experiment [7] is RXF 393 renal.
For experiment [8], the system named is CCRF-CEM leukemia.
The subject of experiment [9] is HL-60(TB) leukemia.
Experiment [10] has as its system HCT-15 colon.

Structures are written as SMILES.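 Values below derive from 48-hour exposures of cells grown in 96-well plates, with endpoints linearly interpolated between the two concentrations bracketing the appropriate inhibition level. TGI is the concentration that stops growth completely.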 A value given as a limit tells only on which side of the number the result lay.

`O=C1NCCCc2nonc21`: the TGI in [1], in experiment [2], in experiment [3], in [4], in [5] and in experiment [6] was above 100 µM throughout. In addition, the TGI in [7], in [8], in experiment [9] and in experiment [10] was above 100 µM each time.

With `Cc1cc(C)c2c(=O)n(CN3CC4Nc5ccccc5C4C3)sc2n1` (stereo not given), the TGI in experiment [1] is 46.2 µM; in [2], above 100 µM; in experiment [3], above 100 µM; in experiment [4], 81.1 µM; in experiment [5], 43.7 µM; in experiment [6], 42.4 µM. Besides, the TGI in experiment [7] was 40.4 µM; in experiment [8], above 100 µM; in experiment [9], 63.2 µM; in experiment [10] it was 44.3 µM.

As to `COC(=O)c1ccccc1/C=C1/Cc2ccccc2C1=O`, the TGI in experiment [1] was above 100 µM; in experiment [2] it was above 100 µM; in experiment [3], above 100 µM; in experiment [4] it was above 100 µM; in [5], 62.8 µM; in [6] it was above 100 µM. Also, the TGI in experiment [7] was above 100 µM; in experiment [8] it was 98.5 µM; in experiment [9], above 100 µM; in experiment [10], 58.6 µM.

With `CC(=O)OC(C)c1cc2c(s1)C(=O)c1sccc1C2=O` (stereo not given), the TGI in experiment [1] was 2.36 µM; in [2], above 100 µM; in experiment [3], 2.65 µM; in experiment [4], 3.94 µM; in [5], 2.48 µM; in [6], 3.3 µM. In addition, the TGI is 3.27 µM in [7], above 100 µM in [8], above 100 µM in experiment [9] and 2.38 µM in experiment [10].

For `O=c1c2ncn(C3CC(O)C(CO)O3)c2nnn1Cc1ccccc1[N+](=O)[O-]` (stereo not given), the TGI was above 100 µM in [1]; 45.4 µM in experiment [2]; above 100 µM in experiment [3]; above 100 µM in [4]; above 100 µM in [5]; above 100 µM in experiment [6]. For the same molecule, the TGI in [7] is 94.1 µM; in experiment [8], above 100 µM; in experiment [9] it was above 100 µM; in experiment [10], above 100 µM.

For `O=C1C(c2c(O)[nH]c3ccc(S(=O)(=O)O)cc23)=Nc2ccccc21`, the TGI in [1], in [2], in experiment [3], in [4], in experiment [5] and in experiment [6] was above 100 µM each time. The TGI in experiment [7], in [8], in [9] and in experiment [10] was above 100 µM throughout.

Turning to `O=C(O)[C@@H]1C[C@@H](O)CN1C(=O)OCc1ccccc1`, the TGI in experiment [1], in experiment [2], in experiment [3], in [4], in experiment [5] and in [6] was above 100 µM each time. The TGI in experiment [7], in experiment [8], in experiment [9] and in [10] was above 100 µM each time.

For the molecule `NC(CSCc1ccccc1)C(=O)O` (stereo not given), the TGI in experiment [1], in [2], in experiment [3], in [4], in [5] and in [6] was above 100 µM throughout. In addition, the TGI in experiment [7], in [8], in experiment [9] and in experiment [10] was above 100 µM each time.

The values above are taken from PubChem BioAssay (NCI).
